Measured values as given in patent publication US11077196B2, “Abuse-deterrent pharmaceutical composition” (priority 2016, dated 2021).
Entries after “also recorded” stand apart in the source; their conditions may differ.

Assays:
laccase [1] = assay: Laccase mediator system (LMS) and oxycodone: oxygen concentration measurement; type: biochemical; conditions: 10 units laccase ml−1, 1000 mgL−1 oxycodone; for oxygen concentration after the addition of oxycodone, per mediator: mediator 2 mM
Protocol: During the reaction oxygen acts as electron acceptor and is reduced to water by laccases while the mediators are oxidized. The concentration of oxygen was measured as described above. Oxygen is consumed until the mediator is fully oxidized. […] The second step of the reaction is initiated by addition of the target substrate, which is consequently oxidized by the mediators.
In the present experiments the final reaction mixtures contained 0.2 to 6 mM mediator, 1-10 units of laccase per ml and 100-3000 mg L^−1 opioid.
The different mediators were used at concentrations of 2 mM with 10 units laccase ml^−1 and 1000 mgL^−1 oxycodone. The first drop in oxygen concentration represents the oxidation of the respective mediators with the laccase, the second drop—which took place just after the addition of the opioid—was due to the subsequent oxidation of the opioid.

laccase [2] = assay: LMS and oxycodone: HPLC-MS/TOF measurements; conditions: laccase mediator system
laccase [3] = assay: LMS and methadone: oxygen measurements; type: biochemical
[4] = tested on: laccase from Trametes villosa (TvL); assay: Oxygen measurement of laccase catalysed oxidation of opioids (TvL); type: biochemical; conditions: TvL 10 U/ml, substrate 2 mg/ml, distilled water, room temperature, optical oxygen sensor
Text: (§1) Two different laccases were used to achieve elimination of opioids—one of them originated from Trametes villosa (TvL), the other one from Myceliophthora thermophila (MtL).

[5] = tested on: horseradish peroxidase and a laccase originating from Myceliophthora thermophila (MtL); assay: Inactivation of oxycodone with an enzyme system consisting of peroxidase/laccase; type: biochemical; conditions: HRP 10 U/ml, Glucose Oxidase 20 U/ml, Laccase 25 U/ml, Oxycodone 10 mg/ml, Glucose 10 mg/ml, distilled water, room temperature
Text: In the present example, the development of an appropriate enzyme system to eliminate opioids from solution can be shown. A peroxidase is used to produce an hydroxyl group in oxycodone while the such “activated” molecule is further transformed by the laccase. Moreover, optimized reaction conditions for effective conversion of the opioid solution preventing administration through injection are provided. Finally, the function of the system is verified by showing the inactivation of the opioid destroying enzymes proteolytically when the drugs are administered as foreseen.
To achieve the elimination of oxycodone, the following enzymes are used: the horseradish peroxidase and a laccase originating from Myceliophthora thermophila (MtL). Glucose Oxidase (GOD, from Aspergillus niger) is used to generate H2O2 which is required for the peroxidase reaction.
To determine whether the laccase act on activated oxycodone an optical oxygen sensor is used. Laccases use oxygen as electron acceptor, consequently the oxygen concentration decreases upon substrate oxidation.
500 μL samples are taken and put into 500 μL of methanol (MeOH) to precipitate the enzyme. The solution is centrifuged using Vivaspin 500 and transferred to an HPLC vial.

[6] = tested on: laccase from Myceliophthora thermophila (MtL); assay: Oxygen measurement of laccase catalysed oxidation of opioids (MtL); type: biochemical; conditions: MtL 10 U/ml, substrate 2 mg/ml, distilled water, room temperature, optical oxygen sensor
Text: as §1

[7] = tested on: Humicola insolens cutinase (HiC); type: biochemical
[8] = molecular target: T1, Thermobifida cellulosilytica cutinase 1 (THC) (Thermobifida cellulosilytica, UniProt E9LVH8); type: biochemical
T1 construct: made in house
T1 sequence (E9LVH8 1-262): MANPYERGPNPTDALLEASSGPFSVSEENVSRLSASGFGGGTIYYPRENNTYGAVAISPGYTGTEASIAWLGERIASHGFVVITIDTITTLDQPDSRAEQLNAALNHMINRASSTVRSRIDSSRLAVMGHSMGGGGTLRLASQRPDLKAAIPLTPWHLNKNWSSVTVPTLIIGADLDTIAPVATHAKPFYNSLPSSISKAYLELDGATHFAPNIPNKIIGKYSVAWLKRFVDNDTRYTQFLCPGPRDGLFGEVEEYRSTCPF

pepsin = molecular target: T2, pepsin (Sus scrofa, UniProt P00791); assay: Pepsin digestion assay in simulated gastric fluid with SDS-PAGE analysis; type: in vitro ADME; conditions: SGF pH 1.2 with pepsin, 10000 Units pepsin per 1 mg test protein, 37° C., samples at 0, 0.5, 15 minutes
T2 construct: purchased Sigma-Aldrich (US) P7000
T2 sequence (P00791 60-385): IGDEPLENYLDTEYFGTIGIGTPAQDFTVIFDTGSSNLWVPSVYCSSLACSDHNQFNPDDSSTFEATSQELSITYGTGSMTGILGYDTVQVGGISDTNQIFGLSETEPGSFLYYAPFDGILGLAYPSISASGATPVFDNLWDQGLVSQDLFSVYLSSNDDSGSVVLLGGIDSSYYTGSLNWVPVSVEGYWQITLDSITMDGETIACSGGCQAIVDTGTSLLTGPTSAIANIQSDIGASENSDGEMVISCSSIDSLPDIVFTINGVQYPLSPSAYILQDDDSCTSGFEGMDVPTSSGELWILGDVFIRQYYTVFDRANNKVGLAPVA
Protocol: SGF contains 0.084 M HCl, 0.035 M NaCl, 4000 U of pepsin per reaction mixture and has a pH level of 1.2 according to the United States Pharmacopeia (1995). A ratio of 10000 Units of pepsin activity to 1 mg of test protein was used throughout the assay, which is based on an evaluation of the average activity of pepsin recommended in the United States Pharmacopeia (24th edition, 2000) with some modifications. Pepsin (ref. #P7000) was purchased from Sigma-Aldrich (US). All proteins that were used were dissolved in 50 mM Tris-HCl (pH 9.5) at a concentration of 5 mg mL^−1. The reaction mixture contained 1.52 mL of SGF preheated to 37° C. before the addition of 0.08 mL of protein solution (Thomas et al., 2004). The mixture was placed into a thermomixer at 37° C. and was shaken at 400 rpm. For denaturating SDS-polyacrylamide gel electrophoresis analysis (SDS-PAGE) samples of 160 μl were removed at 0 minutes, 0.5 minutes, and 15 minutes after initiation.
SDS-PAGE was performed to analyze and visually inspect stained protein bands whether the protein band is still intact or fragmented after the digestion assay. […]
Each 160 μl of the digestion samples was quenched by adding 56 μl of 200 mM NaHCO3 as neutralization step and 56 μl 4× Laemmli (Laemmli 1970) buffer for electrophoresis. Samples were immediately heated up to 99° C. for 10 minutes and analyzed directly or stored at −20° C. […]

laccase MTL = assay: Polymerization of morphine with laccase from Myceliophthora thermophila (high concentrations); conditions: 50 mM sodium phosphate buffer pH 7, MTL 10 U to 100 U
laccase [9] = assay: Thin layer chromatography of enzymatic conversion; type: biochemical; conditions: samples at 2, 10, 30, 60, 120 minutes of enzymatic reaction

O=C(O)c1cc(O)c(O)c(O)c1 [gallic acid]
oxygen concentration after the addition of oxycodone, per mediator (laccase [1]): no apparent effect
effect of the mediator on oxycodone (MS-TOF analysis) (laccase [2]): no apparent effect

CCC(=O)C(CC(C)N(C)C)(c1ccccc1)c1ccccc1 (racemic) [methadone, (±)-6-dimethylamino-4,4-diphenol-3-heptanone]
oxygen concentration in LMS with methadone (laccase [3]; mediator ABTS): decline in oxygen concentration

CCn1c(=NN=c2sc3cc(S(=O)(=O)O)ccc3n2CC)sc2cc(S(=O)(=O)O)ccc21 [ABTS, 2,2′-azino-bis-(3-ethylbenzthiazoline-6-sulfonic acid)]
effect of the mediator in LMS with methadone (oxygen measurement) (laccase [3]; mediators tested incl. syringic acid, TEMPO, syringol, ABTS): best effect

COc1ccc2c3c1O[C@H]1C(=O)CC[C@@]4(O)[C@@H](C2)N(C)CC[C@]314 [oxycodone, 4,5[alpha]-epoxy-14-hydroxy-3-methoxy-17-methyl-6-morphinanone]
oxidation of oxycodone in the laccase mediator system (laccase [1]; mediators vanillin, ethylvanillin, syringic acid 2 mM): oxidation of oxycodone
oxygen concentration in solution (laccase oxidation of the opioid) [4]: not capable of converting oxycodone
enzymatic conversion of oxycodone (oxygen consumption measurements, HPLC-MS) [5]: successfully converted; also recorded: converted to a product which precipitated
oxygen concentration in solution (laccase oxidation of the opioid) [6]: not capable of converting oxycodone
oxycodone concentration (HPLC-MS/TOF) (laccase [2]; mediators 2 mM, vanillin also 6 mM): decrease in oxycodone concentration

CCOc1cc(C=O)ccc1O [ethylvanillin]
oxygen concentration after the addition of oxycodone, per mediator (laccase [1]): showed a drop in oxygen concentration

CC(=O)Oc1ccc2c3c1O[C@H]1[C@@H](OC(C)=O)C=C[C@H]4[C@@H](C2)N(C)CC[C@@]341 [diacetylmorphine]
DAM concentration [7]: declines
morphine concentration formed from DAM [7]: only increased in the samples that were incubated at 50 °C
product formed from DAM at lower temperatures [7]: only monoacetylmorphine is produced
diacetylmorphine hydrolyzed (total acetate yield, HPLC/RI) ([7]; pH 7): more than 50%
DAM concentration [8]: declines
morphine concentration formed from DAM [8]: only increased in the samples that were incubated at 50 °C
product formed from DAM at lower temperatures [8]: only monoacetylmorphine is produced
diacetylmorphine hydrolyzed (total acetate yield, HPLC/RI) ([8]; pH 7): more than 50%

HRP: horse radish peroxidase
proteolytic degradation of the enzyme (protein band on SDS-PAGE) (pepsin): very susceptible to proteolytic degradation

COc1cc(C(=O)O)cc(OC)c1O [syringic acid]
oxygen concentration after the addition of oxycodone, per mediator (laccase [1]): showed a drop in oxygen concentration

COc1cc(C=O)ccc1O [vanillin]
oxygen concentration after the addition of oxycodone, per mediator (laccase [1]): showed a drop in oxygen concentration

CN1CC[C@]23c4c5ccc(O)c4O[C@H]2[C@@H](O)C=C[C@H]3[C@H]1C5 [morphine, 4,5[alpha]-epoxy-17-methyl-7-morphinen-3,6[alpha]-diol]
faster degradation of morphine with 10 times more laccase (laccase MTL): ~10 times
time after which new dots appear on the TLC plate (new product formed) (laccase [9]): 2 min

CC[C@@H](c1cccc(O)c1)[C@@H](C)CN(C)C [tapentadol]
oxygen concentration in solution (laccase oxidation of the opioid) [4]: drops to almost 0% oxygen
oxygen concentration in solution (laccase oxidation of the opioid) [6]: much slower
time after which new dots appear on the TLC plate (new product formed) (laccase [9]): 2 min
time after which the reference dot disappears on TLC (all converted) (laccase [9]): 120 min
